Measurements taken from patent US20210188930A1 (priority 2018, published 2021).
Entries after “also recorded” stand apart in the source; their conditions may differ. Like-named read-outs stand apart in the source and are kept apart here.

Columns and labels:
p53-R282W = biological target: T1, p53-R282W (Homo sapiens, UniProt P04637, R282W); assay type: cell-based; settings: p53-R282W on PUMA promoter, agents 24 hr (FIG. 37 and FIG. 41)
T1 construct: pcDNA3.1 expressing human full length p53 was gift from Prof; Xin Lu; expressed in transfected cells; host or cells: H1299 (p53-null)

NCI60 cell lines = assay type: cell-based, human; settings: Struc. / WT / Null / Others, G150 retrieved by CellMiner
wtp53 = assay: Real time qPCR of p53 targets, HCT116 cells; assay type: cell-based, human; settings: HCT116 expressing wtp53
Description: Total RNA was isolated from cells using Total RNA Purification Kit (B518651, Sangon Biotech). 1 μg total RNA was reverse-transcribed using the GoScript®™ Reverse Transciptase System (A5001, Promega) following manufacturer's protocol. PCR was performed in triplicate using SYBR green mix (Applied Biosystems), and a ViiA™ 7 Real-Time PCR System (Applied Biosystems) under the following conditions: 10 min at 95° C. followed by 40 cycles of 95° C. for 15 s and 60° C. for 1 min. Specificity of the PCR product was checked for each primer set and samples from the melting curve analysis. Expression levels of targeted genes were normalized relative to levels of β-actin adopting comparative Ct method.

p53-R172H = biological target: T2, p53-R172H (Mus musculus, UniProt P02340, R172H); assay type: cell-based
T2 construct: endogenous in cells; host or cells: mouse embryonic fibroblasts, Trp53-R172H/R172H
T2 sequence (P02340 whole entry R172H): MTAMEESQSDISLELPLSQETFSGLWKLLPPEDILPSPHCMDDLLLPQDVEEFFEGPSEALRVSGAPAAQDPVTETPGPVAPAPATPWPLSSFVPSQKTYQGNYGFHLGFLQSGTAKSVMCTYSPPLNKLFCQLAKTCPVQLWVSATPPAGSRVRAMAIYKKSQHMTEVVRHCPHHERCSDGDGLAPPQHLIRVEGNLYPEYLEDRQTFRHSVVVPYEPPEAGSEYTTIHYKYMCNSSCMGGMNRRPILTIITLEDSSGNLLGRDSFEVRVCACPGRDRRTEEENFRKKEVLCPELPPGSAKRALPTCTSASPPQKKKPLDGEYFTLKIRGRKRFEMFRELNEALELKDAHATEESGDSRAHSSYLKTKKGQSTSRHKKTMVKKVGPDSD

Compound	enhancement of p53 transcriptional activity in luciferase assay (p53-R282W)	further results
COc1ccc(/C=C/c2nc(NCCCN(C)C)c3ccccc3n2)cc1 [CP31398]	1.5 times	–
Cc1c2ccncc2c(C)c2c1[nH]c1ccccc12 [Ellipticine]	3.3 times	–
C/C(=N\NC(=S)N1CCC1)c1ccccn1 [NSC319726]	1.5 times	selectivity among NCI60 cell lines by p53 status (G150), in words (NCI60 cell lines): none of the reported compounds tested, including PRIMA-1 and NSC319726 survived the 4C screening; also recorded: No significant association
COc1ccc(C2=N[C@@H](c3ccc(Cl)cc3)[C@@H](c3ccc(Cl)cc3)N2C(=O)N2CCNC(=O)C2)c(OC(C)C)c1 [Nutlin3]	–	mRNA levels of p53 targets, in words (wtp53): significantly enhanced PUMA, PIG3, CDKN1A and MDM2 mRNA levels
O=C1C2CCN(CC2)C1(CO)CO [PRIMA-1]	negligible	selectivity among NCI60 cell lines by p53 status (G150), in words (NCI60 cell lines): none of the reported compounds tested, including PRIMA-1 and NSC319726 survived the 4C screening; selectivity among NCI60 cell lines by p53 status (G150), in words (NCI60 cell lines; listed as NSC281668): No significant association
CCn1c2ccccc2c2cc(CNC)ccc21 [PhiKan083]	negligible	–
OCc1ccc(-c2ccc(-c3ccc(CO)s3)o2)s1 [RITA]	negligible	–
C=Cc1nc2ccccc2c(=O)[nH]1 [STIMA-1]	negligible	–
MIRA-1	negligible	–
potassium arsenite [NSC3060]	–	PAb246 epitope (folded mouse p53-R172H), in words (p53-R172H): measurable increase of PAb1620 epitopes and PAb246 (for mouse p53-R172H) epitopes
